The values that follow come from patent US20150175599A1, “FAAH Inhibitors” (Ironwood Pharmaceuticals, Inc., priority 2010, published 2015).

The structures appear in SMILES notation. A value given as a limit tells only on which side of the number the result lay.

One series concerns the target T1, hERG channel (Homo sapiens, UniProt Q12809).
T1 construct: expressed in transfected cells; host or cells: CHO (hERG-CHO), under Geneticin selection
In words: hERG channel inhibition, automated patch clamp (IonWorks HT, hERG-CHO). Type of series: cell-based. The settings on record: CHO cells expressing hERG, 600 s incubation; for inhibition at 600 s, 1 µM: 1 μM compound, read-out: hERG Channel Inhibition % (at 1 μM), vehicle-subtracted values; for inhibition at 600 s, 10 µM: 10 μM compound, read-out: hERG Channel Inhibition % (at 10 μM), vehicle-subtracted values. The method, boiled down: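 hERG-CHO cells held at 30 °C for 48 h before IonWorks HT patch clamp: from −80 mV to +40 for 2 s, then −50 mV for 2 s tail, repeated three times, before and after 600 s compound exposure. Third-pulse post/pre tail amplitude ratio gave percent inhibition; cells with seal <50 MOhm or tail <250 pA excluded.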
(hERG is a cardiac potassium channel; its block is linked to QT prolongation.)

The nature of series [1]: Pharmacokinetic study, plasma level 2 hours after oral dosing in rats. Type of series: in vivo. The method, boiled down: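 Rats dosed by oral gavage in 1% DMA/99% Vitamin E TPGS; EDTA plasma taken by retro-orbital bleed 2 h post-dose. Acetonitrile precipitation with internal standard, LC/MS/MS quantitation against plasma standards 0.1–3000 ng/mL.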
Another series has as its target T2, FAAH (Homo sapiens, UniProt O00519).
T2 construct: Reactions were initiated by adding 12.5 μg of brain microsome; tissue ABS, Inc; host or cells: human brain cerebral cortex, membrane/microsome fraction pooled from 3 donors
T2 sequence (O00519 1-579): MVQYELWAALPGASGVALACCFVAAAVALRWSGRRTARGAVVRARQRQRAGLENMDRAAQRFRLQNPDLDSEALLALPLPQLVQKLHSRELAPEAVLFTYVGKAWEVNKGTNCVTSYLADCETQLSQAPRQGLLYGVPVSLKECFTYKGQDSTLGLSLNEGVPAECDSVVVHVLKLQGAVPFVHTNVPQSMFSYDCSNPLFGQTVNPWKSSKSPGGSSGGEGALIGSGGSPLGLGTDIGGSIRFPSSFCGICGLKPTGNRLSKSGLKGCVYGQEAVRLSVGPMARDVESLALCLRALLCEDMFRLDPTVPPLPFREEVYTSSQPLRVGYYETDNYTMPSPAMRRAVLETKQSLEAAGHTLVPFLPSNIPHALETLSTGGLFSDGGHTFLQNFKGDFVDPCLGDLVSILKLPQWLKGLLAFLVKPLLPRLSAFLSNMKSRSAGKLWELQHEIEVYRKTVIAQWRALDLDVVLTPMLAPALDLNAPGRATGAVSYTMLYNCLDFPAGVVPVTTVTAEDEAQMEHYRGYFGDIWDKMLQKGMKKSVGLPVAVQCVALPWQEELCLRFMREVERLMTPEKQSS
In words: FAAH inhibition, human brain membrane homogenate assay. In kind it is biochemical. To be noted: human brain homogenate; average activity; read-out: Human brain Extract FAAH IC50.

T1 sequence (Q12809 whole entry): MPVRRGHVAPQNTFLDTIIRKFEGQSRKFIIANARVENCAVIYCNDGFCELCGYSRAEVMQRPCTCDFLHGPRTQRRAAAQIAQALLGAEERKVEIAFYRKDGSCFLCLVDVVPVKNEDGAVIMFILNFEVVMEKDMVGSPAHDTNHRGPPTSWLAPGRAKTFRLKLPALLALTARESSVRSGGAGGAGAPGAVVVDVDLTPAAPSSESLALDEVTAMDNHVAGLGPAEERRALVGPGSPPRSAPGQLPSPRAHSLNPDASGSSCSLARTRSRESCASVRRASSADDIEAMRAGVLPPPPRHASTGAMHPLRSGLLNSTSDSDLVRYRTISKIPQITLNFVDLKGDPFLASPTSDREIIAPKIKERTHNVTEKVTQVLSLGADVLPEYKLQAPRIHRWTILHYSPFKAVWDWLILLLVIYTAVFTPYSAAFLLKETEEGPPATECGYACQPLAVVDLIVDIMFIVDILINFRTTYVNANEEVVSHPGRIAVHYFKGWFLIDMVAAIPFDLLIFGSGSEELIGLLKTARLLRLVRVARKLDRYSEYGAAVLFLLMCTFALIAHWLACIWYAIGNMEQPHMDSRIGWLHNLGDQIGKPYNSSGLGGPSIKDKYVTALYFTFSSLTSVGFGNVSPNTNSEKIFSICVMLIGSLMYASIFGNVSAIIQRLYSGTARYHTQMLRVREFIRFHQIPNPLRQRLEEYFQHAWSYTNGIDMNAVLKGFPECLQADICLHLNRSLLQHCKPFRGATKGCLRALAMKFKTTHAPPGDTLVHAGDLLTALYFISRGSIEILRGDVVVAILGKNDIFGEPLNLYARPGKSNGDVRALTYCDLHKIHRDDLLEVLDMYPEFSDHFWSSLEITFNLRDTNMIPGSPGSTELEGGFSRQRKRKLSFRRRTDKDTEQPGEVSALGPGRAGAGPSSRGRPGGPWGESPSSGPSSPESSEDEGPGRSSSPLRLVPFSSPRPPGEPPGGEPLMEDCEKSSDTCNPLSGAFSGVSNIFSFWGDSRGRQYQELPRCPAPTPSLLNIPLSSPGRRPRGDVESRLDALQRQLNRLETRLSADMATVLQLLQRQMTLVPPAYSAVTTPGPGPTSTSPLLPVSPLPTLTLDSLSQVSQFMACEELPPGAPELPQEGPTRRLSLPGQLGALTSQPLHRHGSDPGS

By inhibition is commonly meant the change of the read-out against control, counted positive when it falls. For orientation: IC50 means the point on the concentration scale where inhibition reaches its midpoint. Regarding `COc1cc(NC(=O)C(=O)c2c(C)n(Cc3ncc(Cl)cc3Cl)c3cc(Cl)c(OC)cc23)ccn1` [Compound 70, 2-(6-chloro-1-((3,5-dichloropyridin-2-yl)methyl)-5-methoxy-2-methyl-1H-indol-3-yl)-N-(2-methoxypyridin-4-yl)-2-oxoacetamide], at hERG channel, the inhibition at 600 s, 1 µM is less than 25% and the inhibition at 600 s, 10 µM is less than 25%. In addition, in series [1], the “2 hr plasma level-ng/mL (rat, 10 mg/kg PO, 2 hr)” value (shortened to “2 hr plasma level-ng/mL”) is “C (C = between 100 nM and 1000 nM)”. Besides, on FAAH, the concentration for half-maximal inhibition (IC50) was less than 100 nM.
For the compound `COc1cc(NC(=O)C(=O)c2c(C)n(Cc3ccc(Cl)cc3)c3ccc(Br)cc23)ccn1` [Compound 18, 2-(5-bromo-1-(4-chlorobenzyl)-2-methyl-1H-indol-3-yl)-N-(2-methoxypyridin-4-yl)-2-oxoacetamide], on hERG channel, the inhibition at 600 s, 1 µM was less than 25% and the inhibition at 600 s, 10 µM is less than 25%. In addition, the “2 hr plasma level-ng/mL” value in series [1] is listed as “D (D = greater than 1000 nM)”. The IC50 at FAAH was less than 100 nM.
Consider `COc1cc(NC(=O)C(=O)c2c(C)n(Cc3ccc(Cl)cc3)c3ccc(N)cc23)ccn1` [Compound 20, 2-(5-amino-1-(4-chlorobenzyl)-2-methyl-1H-indol-3-yl)-N-(2-methoxypyridin-4-yl)-2-oxoacetamide], for which, at hERG channel, the inhibition at 600 s, 1 µM is less than 25% and the inhibition at 600 s, 10 µM was less than 25%. Further, the “2 hr plasma level-ng/mL” value in series [1] was “C (C = between 100 nM and 1000 nM)”. For the same compound, at FAAH, the IC50 was less than 100 nM.
For `COc1cc(NC(=O)C(=O)c2c(C)n(Cc3ccc(Cl)cn3)c3cc(Cl)c(OC)cc23)ccn1` [Compound 60, 2-(6-chloro-1-((5-chloropyridin-2-yl)methyl)-5-methoxy-2-methyl-1H-indol-3-yl)-N-(2-methoxypyridin-4-yl)-2-oxoacetamide], at hERG channel, the inhibition at 600 s, 1 µM is less than 25% and the inhibition at 600 s, 10 µM is 25 to 50%. In addition, the “2 hr plasma level-ng/mL” value in series [1] is given as “D (D = greater than 1000 nM)”. Moreover, the IC50 at FAAH was less than 100 nM.
Regarding `COc1cc(NC(=O)C(=O)c2c(C)n(Cc3ccc(F)cc3F)c3cc(F)c(OC)cc23)ccn1` [Compound 14, 2-(1-(2,4-difluorobenzyl)-6-fluoro-5-methoxy-2-methyl-1H-indol-3-yl)-N-(2-methoxypyridin-4-yl)-2-oxoacetamide], at hERG channel, the inhibition at 600 s, 1 µM is less than 25% and the inhibition at 600 s, 10 µM is less than 25%. Further, in series [1], the “2 hr plasma level-ng/mL” value is “D (D = greater than 1000 nM)”. Besides, the IC50 on FAAH is less than 100 nM.
Regarding `COc1ccc2c(c1)c(C(=O)C(=O)Nc1cc(OC)ncc1F)c(C)n2Cc1ccc(Cl)cc1` [Compound 54, 2-(1-(4-chlorobenzyl)-5-methoxy-2-methyl-1H-indol-3-yl)-N-(5-fluoro-2-methoxypyridin-4-yl)-2-oxoacetamide], at hERG channel, the inhibition at 600 s, 1 µM is less than 25% and the inhibition at 600 s, 10 µM was less than 25%. In series [1], the “2 hr plasma level-ng/mL” value is given as “A (A = Less than 10 nM)”. On FAAH, the 50% inhibitory concentration (IC50) was less than 100 nM.
On to `COc1cc(NC(=O)C(=O)c2c(C)n(Cc3ccc(Cl)cc3)c3cccc(OC)c23)ccn1` [Compound 45, 2-(1-(4-chlorobenzyl)-4-methoxy-2-methyl-1H-indol-3-yl)-N-(2-methoxypyridin-4-yl)-2-oxoacetamide], for which, at hERG channel, the inhibition at 600 s, 1 µM is less than 25% and the inhibition at 600 s, 10 µM was less than 25%. Moreover, the “2 hr plasma level-ng/mL” value in series [1] is “C (C = between 100 nM and 1000 nM)”. Besides, on FAAH, the IC50 is less than 100 nM.
Consider `COc1cc(NC(=O)C(=O)c2c(C)n(Cc3ccc(Cl)cc3)c3cc(OC)c(OC)cc23)ccn1` [Compound 44, 2-(1-(4-chlorobenzyl)-5,6-dimethoxy-2-methyl-1H-indol-3-yl)-N-(2-methoxypyridin-4-yl)-2-oxoacetamide], for which, on hERG channel, the inhibition at 600 s, 1 µM is less than 25% and the inhibition at 600 s, 10 µM is less than 25%. The “2 hr plasma level-ng/mL” value in series [1] is “C (C = between 100 nM and 1000 nM)”. Further, the IC50 on FAAH is less than 100 nM.
For `COc1ccc2c(c1)c(C(=O)C(=O)Nc1ccnc(OC)n1)c(C)n2Cc1ccc(Cl)cc1` [Compound 46, 2-(1-(4-chlorobenzyl)-5-methoxy-2-methyl-1H-indol-3-yl)-N-(2-methoxypyrimidin-4-yl)-2-oxoacetamide], on hERG channel, the inhibition at 600 s, 1 µM was less than 25% and the inhibition at 600 s, 10 µM was less than 25%. Further, the “2 hr plasma level-ng/mL” value in series [1] was “C (C = between 100 nM and 1000 nM)”. For the same compound, the concentration for half-maximal inhibition (IC50) on FAAH is less than 100 nM.
`COc1cc(NC(=O)C(=O)c2c(C)n(Cc3ncc(F)cc3F)c3cc(F)c(OC)cc23)ccn1` [Compound 101, 2-(1-((3,5-difluoropyridin-2-yl)methyl)-6-fluoro-5-methoxy-2-methyl-1H-indol-3-yl)-N-(2-methoxypyridin-4-yl)-2-oxoacetamide]: at hERG channel, the inhibition at 600 s, 1 µM is less than 25% and the inhibition at 600 s, 10 µM is less than 25%. Moreover, in series [1], the “2 hr plasma level-ng/mL” value is on record as “D (D = greater than 1000 nM)”. Also, the IC50 on FAAH was less than 100 nM.
Consider `COc1ccc2c(C(=O)C(=O)Nc3ccnc(OC)c3)c(C)n(Cc3ccc(Cl)cc3)c2c1` [Compound 48, 2-(1-(4-chlorobenzyl)-6-methoxy-2-methyl-1H-indol-3-yl)-N-(2-methoxypyridin-4-yl)-2-oxoacetamide], for which, at hERG channel, the inhibition at 600 s, 1 µM is less than 25% and the inhibition at 600 s, 10 µM is less than 25%. Besides, in series [1], the “2 hr plasma level-ng/mL” value was “C (C = between 100 nM and 1000 nM)”. Further, the IC50 on FAAH was less than 100 nM.
For the compound `COc1cc(NC(=O)C(=O)c2c(C)n(Cc3ccc(Cl)cc3)c3ccc(O)cc23)ccn1` [Compound 2, 2-(1-(4-chlorobenzyl)-5-hydroxy-2-methyl-1H-indol-3-yl)-N-(2-methoxypyridin-4-yl)-2-oxoacetamide], at hERG channel, the inhibition at 600 s, 1 µM was less than 25% and the inhibition at 600 s, 10 µM was less than 25%. In addition, the “2 hr plasma level-ng/mL” value in series [1] is “A (A = Less than 10 nM)”. In addition, the IC50 on FAAH is less than 100 nM.
Turning to `COc1cc(NC(=O)C(=O)c2c(C)n(Cc3ccc(Cl)cc3)c3ccc(OC)c(F)c23)ccn1` [Compound 59, 2-(1-(4-chlorobenzyl)-4-fluoro-5-methoxy-2-methyl-1H-indol-3-yl)-N-(2-methoxypyridin-4-yl)-2-oxoacetamide], at hERG channel, the inhibition at 600 s, 1 µM is less than 25% and the inhibition at 600 s, 10 µM lay in the range of 25 to 50%. The “2 hr plasma level-ng/mL” value in series [1] was “C (C = between 100 nM and 1000 nM)”. Also, the IC50 at FAAH was less than 100 nM.
`COc1cc(NC(=O)C(=O)c2c(C)n(Cc3ccc(Cl)cc3)c3ccc(OC(C)=O)cc23)ccn1` [Compound 1, 1-(4-chlorobenzyl)-3-(2-(2-methoxypyridin-4-ylamino)-2-oxoacetyl)-2-methyl-1H-indol-5-yl acetate]: at hERG channel, the inhibition at 600 s, 1 µM was less than 25% and the inhibition at 600 s, 10 µM is less than 25%. In addition, the “2 hr plasma level-ng/mL” value in series [1] is listed as “A (A = Less than 10 nM)”. At FAAH, the half-inhibitory concentration (IC50) is less than 100 nM.
For the compound `COc1ccc2c(c1)c(C(=O)C(=O)Nc1ccnc(OC)c1)c(C)n2Cc1cnc(Cl)cn1` [Compound 12, 2-(1-((5-chloropyrazin-2-yl)methyl)-5-methoxy-2-methyl-1H-indol-3-yl)-N-(2-methoxypyridin-4-yl)-2-oxoacetamide], at hERG channel, the inhibition at 600 s, 1 µM was less than 25% and the inhibition at 600 s, 10 µM was less than 25%. Besides, the “2 hr plasma level-ng/mL” value in series [1] is “C (C = between 100 nM and 1000 nM)”. Besides, on FAAH, the concentration for half-maximal inhibition (IC50) is less than 100 nM.
Take `COc1cc(NC(=O)C(=O)c2c(C)n(Cc3ccc(Cl)cc3)c3ccc(N(C)C)cc23)ccn1` [Compound 17, 2-(1-(4-chlorobenzyl)-5-(dimethylamino)-2-methyl-1H-indol-3-yl)-N-(2-methoxypyridin-4-yl)-2-oxoacetamide]: at hERG channel, the inhibition at 600 s, 1 µM is less than 25% and the inhibition at 600 s, 10 µM is less than 25%. The “2 hr plasma level-ng/mL” value in series [1] was “C (C = between 100 nM and 1000 nM)”. Also, the half-maximal inhibitory concentration (IC50) at FAAH was less than 100 nM.
`CNc1ccc2c(c1)c(C(=O)C(=O)Nc1ccnc(OC)c1)c(C)n2Cc1ccc(Cl)cc1` [Compound 9, 2-(1-(4-chlorobenzyl)-2-methyl-5-(methylamino)-1H-indol-3-yl)-N-(2-methoxypyridin-4-yl)-2-oxoacetamide]: at hERG channel, the inhibition at 600 s, 1 µM was less than 25% and the inhibition at 600 s, 10 µM is less than 25%. Further, the “2 hr plasma level-ng/mL” value in series [1] is “C (C = between 100 nM and 1000 nM)”. Besides, the IC50 on FAAH was less than 100 nM.
